Source: US8906916B2, “Pyrimidine derivatives as FAK inhibitors” (Merck Patent GmbH, priority 2010, dated 2014)

Biological target: focal adhesion kinase (FAK) (Homo sapiens, UniProt Q05397)
Test: FAK kinase assay (autophosphorylation), 384-well flashplate
Type: biochemical
Conditions: FAK inhibition, enzymatic autophosphorylation assay, 1 μM ATP
Method: FAK Kinase Assay (Autophosphorylation)
The focal adhesion kinase (FAK) assay is carried out either as a 384-well flashplate assay (for example for Topcount measurements) or as a 384-well image flashplate assay (for LEADseeker measurements). 2 nM FAK, 400 nM biotinylated substrate (His-TEV-hsFAK (31 686)(K454R) x biotin) and 1 μM ATP (to which […] of 33P-ATP/well has been added) are incubated at 30° C. for 2 hours with or without test compound in a total volume of 50 μl (60 mM Hepes, 10 mM MgCl2, 1.2 mM dithiothreitol, 0.02% of Brij35, 0.1% of BSA, pH 7.5). The reaction is stopped using 25 μl of 200 mM EDTA. After 30 min at 30° C., the liquid is removed, and each well is washed three times with 100 μl of 0.9% sodium chloride solution. Non-specific reaction is determined in the presence of 1 μM EMD 1076893/0(PF-562271). The radioactivity is measured using Topcount (in the case of the use of flashplates) or using LEADseeker (in the case of the use of image flashplates). Results (for example IC50 values) are calculated using, for example, a Symyx Assay Explorer.

Chain of focal adhesion kinase (FAK) (Q05397 whole entry): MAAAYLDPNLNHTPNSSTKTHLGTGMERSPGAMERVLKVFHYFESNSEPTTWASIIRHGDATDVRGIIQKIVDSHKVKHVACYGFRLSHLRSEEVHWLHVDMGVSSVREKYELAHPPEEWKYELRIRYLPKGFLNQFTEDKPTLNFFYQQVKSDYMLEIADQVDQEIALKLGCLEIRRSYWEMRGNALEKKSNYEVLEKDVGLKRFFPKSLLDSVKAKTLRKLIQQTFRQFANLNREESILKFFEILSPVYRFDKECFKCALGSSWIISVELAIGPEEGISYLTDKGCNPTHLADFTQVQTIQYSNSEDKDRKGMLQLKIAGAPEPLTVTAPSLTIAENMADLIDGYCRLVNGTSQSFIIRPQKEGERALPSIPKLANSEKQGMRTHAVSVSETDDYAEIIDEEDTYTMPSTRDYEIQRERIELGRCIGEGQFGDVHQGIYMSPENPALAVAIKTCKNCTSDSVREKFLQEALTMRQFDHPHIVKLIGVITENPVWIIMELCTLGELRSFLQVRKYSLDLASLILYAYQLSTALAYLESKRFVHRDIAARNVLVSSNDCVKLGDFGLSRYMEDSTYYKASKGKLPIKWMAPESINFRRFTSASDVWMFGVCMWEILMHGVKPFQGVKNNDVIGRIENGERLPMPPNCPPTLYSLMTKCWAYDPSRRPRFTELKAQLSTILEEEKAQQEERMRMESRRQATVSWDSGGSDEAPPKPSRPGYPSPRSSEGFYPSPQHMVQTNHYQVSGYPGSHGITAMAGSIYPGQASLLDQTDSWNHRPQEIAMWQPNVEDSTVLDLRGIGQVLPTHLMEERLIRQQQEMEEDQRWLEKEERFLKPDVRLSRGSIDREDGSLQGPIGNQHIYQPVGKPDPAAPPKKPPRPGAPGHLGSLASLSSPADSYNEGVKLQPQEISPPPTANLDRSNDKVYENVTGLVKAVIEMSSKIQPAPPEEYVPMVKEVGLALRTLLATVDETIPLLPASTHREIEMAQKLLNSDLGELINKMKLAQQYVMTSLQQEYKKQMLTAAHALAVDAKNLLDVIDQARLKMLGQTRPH

SMILES	IC50 [µM]
CN(c1ccccc1CCc1ccnc(Nc2ccc(S(C)(=O)=O)cc2)n1)S(C)(=O)=O [A1, N-(2-{2-[2-(4-methanesulfonylphenylamino)pyrimidin-4-yl]ethyl}-phenyl)-N-methylmethanesulfonamide]	3 to 50
CS(=O)(=O)c1cccc(CCc2ccnc(Nc3ccc4c(c3)CCC(=O)N4)n2)c1 [A3]	3 to 50
N#CC1(c2ncccc2CCc2ccnc(Nc3ccc4c(c3)CC(=O)N4)n2)CNC1 [A16, 3-(3-{2-[2-(2-oxo-2,3-dihydro-1H-indol-5-ylamino)pyrimidin-4-yl]ethyl}pyridin-2-yl)azetidine-3-carbonitrile]	3 to 50
CN(c1ncccc1CCc1ccnc(Nc2cccc(C#N)c2)n1)S(C)(=O)=O [A22]	3 to 50
CN(c1ccccc1CCc1ccnc(Nc2ccc(F)c(C#N)c2)n1)S(C)(=O)=O [A29]	3 to 50
CN(c1ccccc1CCc1ccnc(Nc2ccc(N3CCCC3=O)cc2)n1)S(C)(=O)=O [A35]	0.3 to 3
CN(c1ccccc1CCc1ccnc(Nc2cc(Cl)c(N3CCCC3=O)c(Cl)c2)n1)S(C)(=O)=O [A36]	0.3 to 3
CN(c1ccccc1CCc1ccnc(Nc2ccc(N3C(=O)c4ccccc4C3=O)cc2)n1)S(C)(=O)=O [A38]	0.3 to 3
CN(c1ncccc1CCc1ccnc(Nc2ccc(N3CCCC3=O)cc2)n1)S(C)(=O)=O [A39]	0.3 to 3
CN(c1ncccc1CCc1ccnc(Nc2ccc(NC(=O)c3cccnc3)cc2)n1)S(C)(=O)=O [A40]	0.3 to 3
CN(c1ncccc1CCc1ccnc(Nc2ccc(N3CCOCC3=O)cc2)n1)S(C)(=O)=O [A41]	0.3 to 3
CN(c1ncccc1CCc1ccnc(Nc2ccc(N3C(=O)c4ccccc4C3=O)cc2)n1)S(C)(=O)=O [A43]	0.3 to 3
N#CC1(c2cc(F)ccc2CCc2ccnc(Nc3ccc4c(c3)CC(=O)N4)n2)CCC1 [A46]	0.3 to 3
O=C1CCc2cc(Nc3ncc(Br)c(CCc4ccccc4)n3)ccc2N1 [A101]	0.3 to 3
O=C1Cc2cc(Nc3ncc(C(F)(F)F)c(CCc4ccccc4)n3)ccc2N1 [A102]	0.3 to 3
O=C1CCc2cc(Nc3ncc(C(F)(F)F)c(CCc4ccccc4)n3)ccc2N1 [A103]	0.3 to 3

The remaining lines, values ahead:

IC50 [µM]	SMILES
< 0.3	CN(c1ccccc1CCc1ccnc(Nc2ccc3c(c2)CCC(=O)N3)n1)S(C)(=O)=O [A2, N-methyl-N-(2-{2-[2-(2-oxo-1,2,3,4-tetrahydroquinolin-6-ylamino)pyrimidin-4-yl]ethyl}phenyl)methanesulfonamide]
< 0.3	CN(c1ccccc1CCc1ccnc(Nc2ccc3c(c2)CC(=O)N3)n1)S(C)(=O)=O [A5]
0.3 to 3	CN(c1ncccc1CCc1ccnc(Nc2ccc3c(c2)CC(=O)N3)n1)S(C)(=O)=O [A6]
0.3 to 3	CN(c1ncccc1CCc1ccnc(Nc2ccc3c(c2)CCC(=O)N3)n1)S(C)(=O)=O [A7]
0.3 to 3	N#CCc1ccccc1CCc1ccnc(Nc2ccc3c(c2)CC(=O)N3)n1 [A9]
0.3 to 3	N#CCc1ccc(F)cc1CCc1ccnc(Nc2ccc3c(c2)CC(=O)N3)n1 [A11]
0.3 to 3	N#CC1(c2ccccc2CCc2ccnc(Nc3ccc4c(c3)CC(=O)N4)n2)CCC1 [A13]
0.3 to 3	CN(c1ncccc1CCc1ccnc(Nc2ccc3[nH]c(=O)oc3c2)n1)S(C)(=O)=O [A20]
0.3 to 3	CN1C(=O)Cc2cc(Nc3nccc(CCc4cccnc4N(C)S(C)(=O)=O)n3)ccc21 [A21]
0.3 to 3	CN(c1ncccc1CCc1ccnc(Nc2ccc3c(c2)n(C)c(=O)n3C)n1)S(C)(=O)=O [A25]
0.3 to 3	CN(c1ccccc1CCc1ccnc(Nc2ccc3[nH]c(=O)oc3c2)n1)S(C)(=O)=O [A27]
0.3 to 3	CN(c1ccccc1CCc1ccnc(Nc2cccc(C#N)c2)n1)S(C)(=O)=O [A28]
0.3 to 3	CN(c1ccccc1CCc1ccnc(Nc2ccc3sc(=O)[nH]c3c2)n1)S(C)(=O)=O [A30]
< 0.3	CC(=O)N1CCc2cc(Nc3nccc(CCc4ccccc4N(C)S(C)(=O)=O)n3)ccc21 [A31]
0.3 to 3	CNC(=O)Cc1ccc(Nc2nccc(CCc3ccccc3N(C)S(C)(=O)=O)n2)cc1 [A32]
0.3 to 3	CN(c1ccccc1CCc1ccnc(Nc2ccc(N3CCOCC3=O)cc2)n1)S(C)(=O)=O [A33]
< 0.3	CN(c1ccccc1CCc1ccnc(Nc2ccc(NC(=O)c3cccnc3)cc2)n1)S(C)(=O)=O [A34]
< 0.3	Cc1cnc(N(C)S(C)(=O)=O)c(CCc2ccnc(Nc3ccc4c(c3)CC(=O)N4)n2)c1 [A44]
< 0.3	N#CC1(c2ccc(F)cc2CCc2ccnc(Nc3ccc4c(c3)CC(=O)N4)n2)CCC1 [A45]

Biological target: T1, FAK (Homo sapiens, UniProt Q05397)
T1 construct: HT29 cells are sown out with 30,000 cells per well; endogenous in cells; host or cells: HT29
T1 sequence (Q05397 whole entry): as above
Test: Cellular testing of FAK kinase inhibitors: autophosphorylation of FAK at tyrosine 397 in HT29 cells (Luminex)
Type: cell-based
Conditions: FAK inhibition, P-Y397-FAK in HT29 cells, 30 min, serum-free
Method: Method for the Cellular Testing of FAK Kinase Inhibitors
For analysis of the cellular activity of FAK, the extent of autophosphorylation of FAK at tyrosine 397 is determined with the aid of a Luminex-based assay in the 96-well format. HT29 cells are sown out with 30,000 cells per well in 100 μl of medium (90% of DMEM/10% of FCS) and incubated on the following day for 30 min with a serial dilution of the test substance (7 concentrations) under serum-free conditions. The cells are subsequently lysed using 90 μl of lysis buffer (20 mM tris/HCl pH 8.0, 150 mM NaCl, 1% of NP40, 10% of glycerol, 1% of phosphatase inhibitor II, 20 mM p-glycerol phosphate, 0.1% of protease inhibitor cocktail III, 0.01% of benzonase) per well, and the lysates are separated off from insoluble cell constituents by means of centrifugation through a 96-well filter plate (0.65 μm). The lysates are incubated at 4° C. overnight with shaking with Luminex beads to which an anti-total FAK antibody is coupled. The detection is carried out on the following day by addition of a P-Y397-FAK antibody and a species-specific PE-labelled secondary antibody. P-Y397-FAK is detected by measurement in the Luminex100 instrument by determination of 100 events per cavity in a measurement time of 60 sec. As pharmacological blank, the signals obtained from cells treated with 30 μM of an FAK reference inhibitor are subtracted from all other batches. The control value used for maximum phosphorylation of FAK at Y397 are the signals from cells treated only with the solvent (0.3% of DMSO). The values of the batches treated with test substance are calculated therefrom as percent of control, and IC50 values are determined by means of Assay Explorer.

SMILES	IC50 [µM]
CN(c1ncccc1CCc1ccnc(NCc2ccc(=O)[nH]n2)n1)S(C)(=O)=O [A24]	3 to 50
CN(c1ccccc1CCc1ccnc(Nc2ccc(N3CCCCC3=O)c(C#N)c2)n1)S(C)(=O)=O [A37]	0.3 to 3

More lines, now with the values ahead:

IC50 [µM]	SMILES
3 to 50	CN(c1ccccc1CCc1ccnc(Nc2ccc3c(c2)CCC(=O)N3)n1)S(C)(=O)=O [A2, N-methyl-N-(2-{2-[2-(2-oxo-1,2,3,4-tetrahydroquinolin-6-ylamino)pyrimidin-4-yl]ethyl}phenyl)methanesulfonamide]
3 to 50	CN(c1ncccc1CCc1ccnc(Nc2ccc3c(c2)n(C)c(=O)n3C)n1)S(C)(=O)=O [A25]
3 to 50	CC(=O)N1CCc2cc(Nc3nccc(CCc4ccccc4N(C)S(C)(=O)=O)n3)ccc21 [A31]
0.3 to 3	CN(c1ccccc1CCc1ccnc(Nc2ccc(NC(=O)c3cccnc3)cc2)n1)S(C)(=O)=O [A34]
